Results: PubChem BioAssay AID1963830 (Molecular Pharmacology Branch, DTP, NCI, 2024)

Tested on: 922993-354-T-J3-PDC complex spheroid viability
Experiment: Anticancer human tumor 922993-354-T-J3-PDC patient-derived endometrial carcinoma cell line growth inhibition [POLQ]
Conditions: for IC50: curve of first compound; for viability, T/C: stronger effect = lower value
Method in brief: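 Three-cell-type spheroids modelling solid tumor plus stroma served as the readout system; POL inhibitors were tested individually and in combination, concentration ranges set by clinical Cmax where known.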

[1] = second compound 0.0316 µM, first compound 0.00316 µM
[2] = second compound 0.0316 µM, first compound 0.01 µM
[3] = second compound 0.0316 µM, first compound 0.0316 µM
[4] = second compound 0.0316 µM, first compound 0.1 µM
[5] = second compound 0.0316 µM, first compound 0.316 µM
[6] = second compound 0.0316 µM, first compound 1 µM
[7] = second compound 0.1 µM, first compound 0.00316 µM
[8] = second compound 0.1 µM, first compound 0.01 µM
[9] = second compound 0.1 µM, first compound 0.0316 µM
[10] = second compound 0.1 µM, first compound 0.1 µM
[11] = second compound 0.1 µM, first compound 0.316 µM
[12] = second compound 0.1 µM, first compound 1 µM
[13] = second compound 0.316 µM, first compound 0.00316 µM
[14] = second compound 0.316 µM, first compound 0.01 µM
[15] = second compound 0.316 µM, first compound 0.0316 µM
[16] = second compound 0.316 µM, first compound 0.1 µM
[17] = second compound 0.316 µM, first compound 0.316 µM
[18] = second compound 0.316 µM, first compound 1 µM
[19] = second compound 1 µM, first compound 0.00316 µM
[20] = second compound 1 µM, first compound 0.01 µM
[21] = second compound 1 µM, first compound 0.0316 µM
[22] = second compound 1 µM, first compound 0.1 µM
[23] = second compound 1 µM, first compound 0.316 µM
[24] = second compound 1 µM, first compound 1 µM
[25] = second compound 3.16 µM, first compound 0.00316 µM
[26] = second compound 3.16 µM, first compound 0.01 µM
[27] = second compound 3.16 µM, first compound 0.0316 µM
[28] = second compound 3.16 µM, first compound 0.1 µM
[29] = second compound 3.16 µM, first compound 0.316 µM
[30] = second compound 3.16 µM, first compound 1 µM
[31] = second compound 10 µM, first compound 0.00316 µM
[32] = second compound 10 µM, first compound 0.01 µM
[33] = second compound 10 µM, first compound 0.0316 µM
[34] = second compound 10 µM, first compound 0.1 µM
[35] = second compound 10 µM, first compound 0.316 µM
[36] = second compound 10 µM, first compound 1 µM
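Also: spheroids exposed to the agents for one week.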
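For viability, T/C in this document: 100% = DMSO vehicle control wells.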

C=CCn1c(=O)c2cnc(Nc3ccc(N4CCN(C)CC4)cc3)nc2n1-c1cccc(C(C)(C)O)n1 + Nc1ccc(C#CCN(C(=O)Cc2ncc(C(F)(F)F)cc2C(F)(F)F)c2ccc(F)cc2)nn1
IC50 (second compound 0.0316 µM): > 1000 nM | IC50 (second compound 0.1 µM): > 1000 nM | IC50 (second compound 0.316 µM): > 1000 nM | IC50 (second compound 1 µM): > 1000 nM | IC50 (second compound 3.16 µM): > 1000 nM | IC50 (second compound 10 µM): > 1000 nM | viability, T/C [1]: 105% | viability, T/C [2]: 102% | viability, T/C [3]: 101% | viability, T/C [4]: 100% | viability, T/C [5]: 106% | viability, T/C [6]: 98.5% | viability, T/C [7]: 107% | viability, T/C [8]: 98.5% | viability, T/C [9]: 103% | viability, T/C [10]: 99.6% | viability, T/C [11]: 104% | viability, T/C [12]: 101% | viability, T/C [13]: 107% | viability, T/C [14]: 101% | viability, T/C [15]: 97.5% | viability, T/C [16]: 101% | viability, T/C [17]: 99.6% | viability, T/C [18]: 100% | viability, T/C [19]: 103% | viability, T/C [20]: 99% | viability, T/C [21]: 101% | viability, T/C [22]: 97.6% | viability, T/C [23]: 100% | viability, T/C [24]: 100% | viability, T/C [25]: 100% | viability, T/C [26]: 98.8% | viability, T/C [27]: 101% | viability, T/C [28]: 99.4% | viability, T/C [29]: 101% | viability, T/C [30]: 94.8% | viability, T/C [31]: 96.3% | viability, T/C [32]: 92.5% | viability, T/C [33]: 94.5% | viability, T/C [34]: 95.8% | viability, T/C [35]: 97% | viability, T/C [36]: 55.2%

CC[C@@]1(O)C(=O)OCc2c1cc1n(c2=O)Cc2cc3c(CN(C)C)c(O)ccc3nc2-1 + Cc1cccc(N(C)C(=O)C2C(O)CCN2c2nc(C)cc(C(F)(F)F)c2C#N)c1
IC50 (second compound 0.0316 µM): 90.6 nM | IC50 (second compound 0.1 µM): > 100 nM | IC50 (second compound 0.316 µM): > 100 nM | IC50 (second compound 1 µM): > 100 nM | IC50 (second compound 3.16 µM): > 100 nM | IC50 (second compound 10 µM): 48.5 nM | viability, T/C (second compound 0.0316 µM, first compound 0.000316 µM): 108% | viability, T/C (second compound 0.0316 µM, first compound 0.001 µM): 100% | viability, T/C [1]: 104% | viability, T/C [2]: 98.6% | viability, T/C [3]: 88.2% | viability, T/C [4]: 46.3% | viability, T/C (second compound 0.1 µM, first compound 0.000316 µM): 109% | viability, T/C (second compound 0.1 µM, first compound 0.001 µM): 101% | viability, T/C [7]: 103% | viability, T/C [8]: 102% | viability, T/C [9]: 90% | viability, T/C [10]: 65.5% | viability, T/C (second compound 0.316 µM, first compound 0.000316 µM): 110% | viability, T/C (second compound 0.316 µM, first compound 0.001 µM): 104% | viability, T/C [13]: 94.9% | viability, T/C [14]: 102% | viability, T/C [15]: 87% | viability, T/C [16]: 59.1% | viability, T/C (second compound 1 µM, first compound 0.000316 µM): 104% | viability, T/C (second compound 1 µM, first compound 0.001 µM): 99.5% | viability, T/C [19]: 104% | viability, T/C [20]: 99.7% | viability, T/C [21]: 86% | viability, T/C [22]: 57.3% | viability, T/C (second compound 3.16 µM, first compound 0.000316 µM): 108% | viability, T/C (second compound 3.16 µM, first compound 0.001 µM): 102% | viability, T/C [25]: 94.1% | viability, T/C [26]: 93% | viability, T/C [27]: 77.1% | viability, T/C [28]: 49.9% | viability, T/C (second compound 10 µM, first compound 0.000316 µM): 101% | viability, T/C (second compound 10 µM, first compound 0.001 µM): 99.2% | viability, T/C [31]: 99.2% | viability, T/C [32]: 79.1% | viability, T/C [33]: 68.3% | viability, T/C [34]: 23.7%

C#Cc1c(F)ccc2cc(O)cc(-c3ncc4c(N5CC6CCC(C5)N6)nc(OCC56CCCN5CC(F)C6)nc4c3F)c12 (stereo unspecified) + COC1C(OC(N)=O)C(O)C(Oc2ccc3c(O)c(NC(=O)c4ccc(O)c(CC=C(C)C)c4)c(=O)oc3c2C)OC1(C)C
IC50 (second compound 0.0316 µM): > 10000 nM | IC50 (second compound 0.1 µM): > 10000 nM | IC50 (second compound 0.316 µM): > 10000 nM | IC50 (second compound 1 µM): > 10000 nM | IC50 (second compound 3.16 µM): > 10000 nM | IC50 (second compound 10 µM): > 10000 nM | viability, T/C [3]: 100% | viability, T/C [4]: 97.4% | viability, T/C [5]: 90.5% | viability, T/C [6]: 101% | viability, T/C (second compound 0.0316 µM, first compound 3.16 µM): 98% | viability, T/C (second compound 0.0316 µM, first compound 10 µM): 79.5% | viability, T/C [9]: 105% | viability, T/C [10]: 101% | viability, T/C [11]: 98.8% | viability, T/C [12]: 90.3% | viability, T/C (second compound 0.1 µM, first compound 3.16 µM): 94.9% | viability, T/C (second compound 0.1 µM, first compound 10 µM): 90.4% | viability, T/C [15]: 105% | viability, T/C [16]: 98.4% | viability, T/C [17]: 104% | viability, T/C [18]: 87.2% | viability, T/C (second compound 0.316 µM, first compound 3.16 µM): 92.8% | viability, T/C (second compound 0.316 µM, first compound 10 µM): 90% | viability, T/C [21]: 96.9% | viability, T/C [22]: 98.8% | viability, T/C [23]: 94.9% | viability, T/C [24]: 94.2% | viability, T/C (second compound 1 µM, first compound 3.16 µM): 93% | viability, T/C (second compound 1 µM, first compound 10 µM): 86.9% | viability, T/C [27]: 96.9% | viability, T/C [28]: 90.3% | viability, T/C [29]: 98.3% | viability, T/C [30]: 81.7% | viability, T/C (second compound 3.16 µM, first compound 3.16 µM): 99.5% | viability, T/C (second compound 3.16 µM, first compound 10 µM): 74.9% | viability, T/C [33]: 81.8% | viability, T/C [34]: 86.2% | viability, T/C [35]: 90.4% | viability, T/C [36]: 89.5% | viability, T/C (second compound 10 µM, first compound 3.16 µM): 96.2% | viability, T/C (second compound 10 µM, first compound 10 µM): 72.1%
